This is an account of results in patent US4450269A, “Mono-5-substituted-3-chloro-4H-1,2,6-thiadiazin-4-one antifungal agents” (FMC Corporation, priority 1980, dated 1984).

Like-named read-outs stand apart in the source and are kept apart here.

The test system of one experiment is Pyricularia oryzae. The experiment is classed as cell-based. Conditions: PO, 48 hours.
For the next experiment, the system named is Cladosporium cucumerinum. Put plainly: Mycelial growth test. Conditions: CC; for Percent Fungus Growth Inhibition: 72 hours; for inhibition at 5 ppm / inhibition at 10 ppm / inhibition at 40 ppm / inhibition at 20 ppm: Cladosporium cucumerinum, read-out: Percent Fungus Growth Inhibition; for inhibition at 5 ppm / inhibition at 10 ppm / inhibition at 40 ppm: 72 h; for inhibition at 20 ppm: CC20, 72 h. The experiment is classed as cell-based. An excerpt:
|CC = Cladosporium cucumerinum

With “3-chloro-5-[methylaminocarbonyloxy)phenoxyl]-4H-1,2,6-thiadiazin-4-one [Compound 36]”, the “Spore Germination Rating” value in the experiment with Pyricularia oryzae (1.0 ppm) is given as 4 (80-100); with Pyricularia oryzae (2.5 ppm) it was 2 (40-60); with Pyricularia oryzae (10 ppm), 0 (0-10); with Pyricularia oryzae (40 ppm) it was 0 (0-10). The “Percent Fungus Growth Inhibition” value was determined as 0% with Cladosporium cucumerinum (5 ppm), 8% with Cladosporium cucumerinum (10 ppm), 38% in the experiment on Cladosporium cucumerinum (20 ppm) and 62% in the experiment with Cladosporium cucumerinum (40 ppm).

For orientation: inhibition means how much of the control response was suppressed. Turning to `O=c1c(Cl)nsnc1Oc1ccccc1` [Compound 2, 3-chloro-5-phenoxy-4H--1,2,6-thiadiazin-4-one], the “Spore Germination Rating” value was 3 (60-80) in the experiment on Pyricularia oryzae (1.0 ppm), 1 (10-40) in the experiment on Pyricularia oryzae (2.5 ppm), 0 (0-10) with Pyricularia oryzae (10 ppm) and 0 (0-10) in the experiment with Pyricularia oryzae (40 ppm). Also, in the experiment on Cladosporium cucumerinum (5 ppm), the inhibition at 5 ppm stood at 46%. In addition, the inhibition at 10 ppm in the experiment on Cladosporium cucumerinum (10 ppm) was 58%. Besides, the inhibition at 40 ppm in the experiment on Cladosporium cucumerinum (40 ppm) amounted to 100%. Moreover, in the experiment with Cladosporium cucumerinum (20 ppm), the inhibition at 20 ppm came to 100%.

On to `Cc1ccc(Oc2nsnc(Cl)c2=O)cc1` [Compound 3, 3-chloro-5-(4-methylphenoxy)-4H--1,2,6-thiadiazin-4-one], for which the “Spore Germination Rating” value is 0 (0-10) with Pyricularia oryzae (1.0 ppm), 4 (80-100) with Pyricularia oryzae (2.5 ppm), 0 (0-10) in the experiment on Pyricularia oryzae (10 ppm) and 0 (0-10) with Pyricularia oryzae (40 ppm). Also, the inhibition at 5 ppm with Cladosporium cucumerinum (5 ppm) amounted to 58%. Moreover, the inhibition at 10 ppm in the experiment with Cladosporium cucumerinum (10 ppm) worked out at 67%. Besides, in the experiment with Cladosporium cucumerinum (40 ppm), the inhibition at 40 ppm is 100%. Also, the inhibition at 20 ppm with Cladosporium cucumerinum (20 ppm) came out at 100%.

For the compound `CC(C)(C)c1ccc(Oc2nsnc(Cl)c2=O)cc1` [Compound 4, 3-chloro-5-(4-tert-butylphnoxy)-4H--1,2,6-thiadiazin-4-one], the “Spore Germination Rating” value was 4 (80-100) in the experiment with Pyricularia oryzae (1.0 ppm), 4 (80-100) in the experiment on Pyricularia oryzae (2.5 ppm), 0 (0-10) in the experiment on Pyricularia oryzae (10 ppm) and 0 (0-10) in the experiment with Pyricularia oryzae (40 ppm). Also, the inhibition at 5 ppm with Cladosporium cucumerinum (5 ppm) came out at 0%. Further, in the experiment on Cladosporium cucumerinum (10 ppm), the inhibition at 10 ppm was found to be 9%. Moreover, in the experiment on Cladosporium cucumerinum (40 ppm), the inhibition at 40 ppm was determined as 45%. For the same compound, the inhibition at 20 ppm with Cladosporium cucumerinum (20 ppm) was 27%.

Turning to `COc1ccc(Oc2nsnc(Cl)c2=O)cc1` [Compound 5, 3-chloro-5-(4-methoxyphenoxy)4H--1,2,6-thiadiazin-4-one], the “Spore Germination Rating” value in the experiment with Pyricularia oryzae (1.0 ppm) is 4 (80-100); in the experiment with Pyricularia oryzae (2.5 ppm), 1 (10-40); in the experiment with Pyricularia oryzae (10 ppm), 0 (0-10); with Pyricularia oryzae (40 ppm), 0 (0-10). Moreover, in the experiment with Cladosporium cucumerinum (5 ppm), the inhibition at 5 ppm is 50%. The inhibition at 10 ppm in the experiment on Cladosporium cucumerinum (10 ppm) stood at 75%. In addition, the inhibition at 40 ppm in the experiment with Cladosporium cucumerinum (40 ppm) is 100%. In the experiment on Cladosporium cucumerinum (20 ppm), the inhibition at 20 ppm stood at 100%.

With `CCCCOc1ccc(Oc2nsnc(Cl)c2=O)cc1` [Compound 6, 3-chloro-5-(4-n-butoxyphenoxy)-4H--1,2,6-thiadiazin-4-one], the “Spore Germination Rating” value in the experiment on Pyricularia oryzae (1.0 ppm) was 2 (40-60); in the experiment on Pyricularia oryzae (2.5 ppm) it was 1 (10-40); with Pyricularia oryzae (10 ppm) it was 2 (40-60); with Pyricularia oryzae (40 ppm), 0 (0-10). Moreover, in the experiment on Cladosporium cucumerinum (5 ppm), the inhibition at 5 ppm amounted to 0%. Besides, the inhibition at 10 ppm in the experiment with Cladosporium cucumerinum (10 ppm) worked out at 0%. For the same compound, in the experiment on Cladosporium cucumerinum (40 ppm), the inhibition at 40 ppm was 45%. In addition, the inhibition at 20 ppm in the experiment on Cladosporium cucumerinum (20 ppm) came to 0%.

On to `CCOC(=O)c1ccc(Oc2nsnc(Cl)c2=O)cc1` [Compound 7, 3-chloro-5-(4-ethoxycarbonylphenoxy)-4H--1,2,6-thiadiazin-4-one], for which the “Spore Germination Rating” value in the experiment on Pyricularia oryzae (1.0 ppm), in the experiment with Pyricularia oryzae (2.5 ppm), in the experiment with Pyricularia oryzae (10 ppm) and in the experiment with Pyricularia oryzae (40 ppm) was 1 (10-40) throughout. The inhibition at 5 ppm in the experiment on Cladosporium cucumerinum (5 ppm) turned out to be 9%. Moreover, the inhibition at 10 ppm in the experiment on Cladosporium cucumerinum (10 ppm) was 36%. Moreover, the inhibition at 40 ppm in the experiment on Cladosporium cucumerinum (40 ppm) came to 100%. Besides, the inhibition at 20 ppm in the experiment on Cladosporium cucumerinum (20 ppm) came out at 100%.

For the compound `CC(=O)Nc1ccc(Oc2nsnc(Cl)c2=O)cc1` [Compound 8, 5-(4-acetylaminophenoxy)-3-chloro-4H--1,2,6-thiadiazin-4-one], the “Spore Germination Rating” value is listed as 4 (80-100) with Pyricularia oryzae (1.0 ppm), 3 (60-80) in the experiment on Pyricularia oryzae (2.5 ppm), 0 (0-10) with Pyricularia oryzae (10 ppm) and 0 (0-10) with Pyricularia oryzae (40 ppm). Besides, in the experiment on Cladosporium cucumerinum (5 ppm), the inhibition at 5 ppm was 50%. Also, the inhibition at 10 ppm in the experiment on Cladosporium cucumerinum (10 ppm) is 58%. In addition, the inhibition at 40 ppm in the experiment with Cladosporium cucumerinum (40 ppm) came out at 100%. The inhibition at 20 ppm in the experiment on Cladosporium cucumerinum (20 ppm) came out at 67%.

Take `O=c1c(Cl)nsnc1Oc1ccc([N+](=O)[O-])cc1` [Compound 9, 3-chloro-5-(4-nitrophenoxy)-4H--1,2,6-thiadiazin-4-one]: the “Spore Germination Rating” value with Pyricularia oryzae (1.0 ppm), in the experiment on Pyricularia oryzae (2.5 ppm), with Pyricularia oryzae (10 ppm) and in the experiment on Pyricularia oryzae (40 ppm) was 0 (0-10) each time. Further, in the experiment with Cladosporium cucumerinum (5 ppm), the inhibition at 5 ppm was 54%. In addition, the inhibition at 10 ppm in the experiment on Cladosporium cucumerinum (10 ppm) turned out to be 75%. Besides, the inhibition at 40 ppm with Cladosporium cucumerinum (40 ppm) turned out to be 100%. For the same compound, the inhibition at 20 ppm in the experiment on Cladosporium cucumerinum (20 ppm) is 92%.

With `N#Cc1ccc(Oc2nsnc(Cl)c2=O)cc1` [Compound 10, 3-chloro-5-(4-cyanophenoxy)-4H--1,2,6-thiadiazin-4-one], the “Spore Germination Rating” value in the experiment on Pyricularia oryzae (1.0 ppm), with Pyricularia oryzae (2.5 ppm), in the experiment on Pyricularia oryzae (10 ppm) and in the experiment on Pyricularia oryzae (40 ppm) was 0 (0-10) throughout. Also, the inhibition at 5 ppm with Cladosporium cucumerinum (5 ppm) was found to be 9%. In the experiment on Cladosporium cucumerinum (10 ppm), the inhibition at 10 ppm stood at 45%. Further, the inhibition at 40 ppm with Cladosporium cucumerinum (40 ppm) was found to be 100%. In the experiment with Cladosporium cucumerinum (20 ppm), the inhibition at 20 ppm came to 100%.

For `O=c1c(Cl)nsnc1Oc1ccc(F)cc1` [Compound 11, 3-chloro-5-(4-fluorophenoxy)-4H--1,2,6-thiadiazin-4-one], the “Spore Germination Rating” value was 3 (60-80) in the experiment on Pyricularia oryzae (1.0 ppm), 0 (0-10) in the experiment on Pyricularia oryzae (2.5 ppm), 0 (0-10) in the experiment on Pyricularia oryzae (10 ppm) and 0 (0-10) in the experiment on Pyricularia oryzae (40 ppm). Moreover, the inhibition at 5 ppm in the experiment with Cladosporium cucumerinum (5 ppm) came out at 27%. Moreover, the inhibition at 10 ppm in the experiment on Cladosporium cucumerinum (10 ppm) came out at 64%. The inhibition at 40 ppm with Cladosporium cucumerinum (40 ppm) was 100%. In the experiment on Cladosporium cucumerinum (20 ppm), the inhibition at 20 ppm worked out at 100%.

For the compound `O=c1c(Cl)nsnc1Oc1ccc(Cl)cc1` [Compound 12, 3-chloro-5-(4-chlorophenoxy)-4H--1,2,6-thiadiazin-4-one], the “Spore Germination Rating” value with Pyricularia oryzae (1.0 ppm), in the experiment on Pyricularia oryzae (2.5 ppm), with Pyricularia oryzae (10 ppm) and in the experiment with Pyricularia oryzae (40 ppm) was 0 (0-10) in each case. In the experiment on Cladosporium cucumerinum (5 ppm), the inhibition at 5 ppm was 63%. For the same compound, the inhibition at 10 ppm with Cladosporium cucumerinum (10 ppm) amounted to 58%. For the same compound, the inhibition at 40 ppm in the experiment on Cladosporium cucumerinum (40 ppm) was 100%. Moreover, in the experiment with Cladosporium cucumerinum (20 ppm), the inhibition at 20 ppm was 71%.

`O=c1c(Cl)nsnc1Oc1cccc(Cl)c1` [Compound 13, 3-chloro-5-(3-chlorophenoxy)-4H--1,2,6-thiadiazin-4-one]: the “Spore Germination Rating” value is listed as 3 (60-80) in the experiment on Pyricularia oryzae (1.0 ppm), 0 (0-10) in the experiment on Pyricularia oryzae (2.5 ppm), 0 (0-10) in the experiment on Pyricularia oryzae (10 ppm) and 0 (0-10) in the experiment on Pyricularia oryzae (40 ppm). Besides, in the experiment with Cladosporium cucumerinum (5 ppm), the inhibition at 5 ppm came out at 58%. In the experiment with Cladosporium cucumerinum (10 ppm), the inhibition at 10 ppm is 67%. The inhibition at 40 ppm in the experiment on Cladosporium cucumerinum (40 ppm) came out at 100%. Besides, the inhibition at 20 ppm with Cladosporium cucumerinum (20 ppm) is 100%.

Consider `O=c1c(Cl)nsnc1Oc1ccccc1Cl` [Compound 14, 3-chloro-5-(2-chlorophenoxy)-4H--1,2,6-thiadiazin-4-one], for which the “Spore Germination Rating” value in the experiment on Pyricularia oryzae (1.0 ppm) is reported as 3 (60-80); in the experiment on Pyricularia oryzae (2.5 ppm), 0 (0-10); in the experiment on Pyricularia oryzae (10 ppm), 0 (0-10); in the experiment on Pyricularia oryzae (40 ppm), 0 (0-10). Besides, the inhibition at 5 ppm with Cladosporium cucumerinum (5 ppm) came to 67%. In addition, the inhibition at 10 ppm in the experiment on Cladosporium cucumerinum (10 ppm) was found to be 50%. Further, in the experiment on Cladosporium cucumerinum (40 ppm), the inhibition at 40 ppm was 100%. In addition, in the experiment with Cladosporium cucumerinum (20 ppm), the inhibition at 20 ppm amounted to 100%.

As for `O=c1c(Cl)nsnc1Oc1ccc(Br)cc1` [Compound 15, 3-chloro-5-(4-bromophenoxy)-4H--1,2,6-thiadiazin-4-one], the “Spore Germination Rating” value was 0 (0-10) in the experiment on Pyricularia oryzae (1.0 ppm), 1 (10-40) in the experiment on Pyricularia oryzae (2.5 ppm), 0 (0-10) in the experiment on Pyricularia oryzae (10 ppm) and 0 (0-10) in the experiment on Pyricularia oryzae (40 ppm). Besides, the inhibition at 5 ppm in the experiment on Cladosporium cucumerinum (5 ppm) was found to be 9%. Further, the inhibition at 10 ppm in the experiment on Cladosporium cucumerinum (10 ppm) stood at 55%. Moreover, the inhibition at 40 ppm in the experiment on Cladosporium cucumerinum (40 ppm) was determined as 100%. The inhibition at 20 ppm with Cladosporium cucumerinum (20 ppm) came to 82%.
